Experimental data: patent US10717718B2 (priority 2015, dated 2020)
Entries after “also recorded” stand apart in the source; their conditions may differ.

Key:
Format in all cases: cell-based
Escherichia coli O13 = system: Escherichia coli O13
[1] = system: Legionella gormanii (Fluoribacter gormanii)
[2] = system: Legionella pneumophila serogroup 1; conditions: 10 mM compound, 37° C., 24 hours, click with CR110-CCH, confocal microscopy
Escherichia coli K12 = conditions: E. coli K12; 10 mM compound, 37° C., 18 hours; click with CR110-CCH; confocal microscopy

Row | Compound | detection / labelling signal of bacteria (Escherichia coli O13) | detection / labelling signal of bacteria [1] | detection / labelling signal of bacteria [2] | detection / labelling signal of bacteria (Escherichia coli K12)
1 | C=C(C[C@H](O)[C@H]1OC(C)(C)O[C@@H]1[C@H](O)CN=[N+]=[N-])C(=O)OCC [Compound 8b, ethyl (4S)-4-{(4R,5R)-5-[(R)-2-azido-1-hydroxyethyl]-2,2-dimethyl-1,3-dioxolan-4-yl)-4-hydroxy-2-methylenebutanoate] | detected; also recorded: clear labelling signal | detected; also recorded: clear labelling signal | detected; also recorded: clear labelling signal | detected; also recorded: clear labelling signal
2 | C=C(C[C@@H](O)[C@H]1OC(C)(C)O[C@@H]1[C@H](O)CN=[N+]=[N-])C(=O)OCC [Compound 8a, ethyl (4R)-4-{(4R,5R)-5-[(R)-2-azido-1-hydroxyethyl]-2,2-dimethyl-1,3-dioxolan-4-yl)-4-hydroxy-2-methylenebutanoate] | detected; also recorded: clear labelling signal | detected; also recorded: clear labelling signal | detected; also recorded: clear labelling signal | detected; also recorded: clear labelling signal
